Literature values, collected in patent US20170094967A1, “OIL PALM FRUIT APPLICATION METHODS” (Valent BioSciences Corporation, priority 2015, published 2017).

Test system: oil palms
Details: applied before harvest directly to the fruit

Compound | oil yield of oil palm fruit
CC1=CC1 [1-MCP, 1-methylcyclopropene] | increases the oil yield
NCCO/C=C/[C@H](N)C(=O)O (stereo in doubt) [AVG, [S]-trans-2-amino-4-(2-aminoethoxy)-3-butenoic acid] | increases the oil yield
